# Assay results as given in patent US20160122821A1, “GENETIC MARKERS OF ANTIPSYCHOTIC RESPONSE” (SUREGENE, LLC, priority 2013, published 2016).
# System: Caucasian patients with schizophrenia (CATIE)
# Assay: Genetic association (linear regression, additive model) of SNP alleles with MMRM-modelled change in PANSS Total Score under antipsychotic treatment, CATIE trial
# Type: in vivo, human
# Description: For the CATIE study, individual cases were diagnosed as having SZ based on DSM-III/IV criteria. Treatment response for all patients was assessed using the Positive and Negative Syndrome Scale (PANSS) (Kay et al., 1987; Kay et al., 1989; Leucht et al., 2005). […] To avoid possible bias in post hoc selection of a treatment response variable, the inventors used the mixed model repeated measures (MMRM) approach developed by van den Oord and coworkers (van den Oord et al., 2009). […] The design of the CATIE study, including details of consent for genetic analyses, has been described in detail by others (Lieberman et al., 2005; Stroup et al., 2003; Sullivan et al., 2008). Only retrospective genetic analyses, judged to be exempt from human studies requirements by an IRB, were conducted in the current study. Consented DNA samples were obtained from the Rutgers University Cell and DNA Repository in collaboration with […]. […] All of these patients self-reported as having exclusively European ancestry. […] Genotyping was performed on a fee for service basis according to Illumina's standard operating procedures. Raw intensity files were processed using Illumina® BeadStudio version 1.7.4 software. […] Only two of these had been previously genotyped in the CATIE sample. […] To allow comparison to previously published PGx findings for CATIE and to avoid possible bias in post-hoc selection of a treatment response variable, the inventors used the mixed model repeated measures (MMRM) approach developed by Van den Oord and coworkers (van den Oord et al., 2009; […] et al., 2011). Briefly, this method models random effects by introducing random slopes for treatment effects, allowing treatment effects to be different across subjects. The MMRM approach serves to increase the statistical power to detect genetic associations by increasing the precision in measuring change in PANSS Total Score (PANSS-T) by accounting for variance due to baseline PANSS-T, and treatment, as well as smoothing out the random fluctuations in PANSS-T between visits due to various uncontrolled variables. […] Bozeman, Mont.). Quantile-Quantile (QQ) plots were prepared using the R statistical package version 2.14.1. For comparison purposes, original CATIE-provided SNP genotypes in specific genes were evaluated using the same genetic analysis. Haplotype association integrating newly generated and original genotypes for specific regions was carried out in SVS using haplotype blocks predefined by Haploview software. […] For each of the SNPs listed the reference SNP (rs) number is provided, which provides the known sequence context for the given SNP (see, e.g., National Center for Biotechnology Information (NCBI) SNP database available on the world wide web at ncbi.nlm.nih.gov/snp).
smiles,measurement,setting,value
"OCCOCCN1CCN(C2=Nc3ccccc3Sc3ccccc32)CC1 [Quetiapine, quetiapine]",Beta (PANSS),"AKAP9 rs35759833 allele C, P 4.46E−02",−4.62 PANSS
same,Beta (PANSS),"ARSB rs25414 allele C, P 2.37E−03",−9.37 PANSS
same,Beta (PANSS),"ATP2B2 rs11712897 allele C, P 2.77E−02",−3.54 PANSS
same,Beta (PANSS),"C13orf35 rs4907727 allele C, P 2.16E−02",−3.58 PANSS
same,Beta (PANSS),"C15orf41 rs8027206 allele A, P 2.90E−02",−3.40 PANSS
same,Beta (PANSS),"CA10 rs7210687 allele C, P 2.52E−02",−3.24 PANSS
same,Beta (PANSS),"CA10 rs17607202 allele C, P 3.87E−02",−3.10 PANSS
same,Beta (PANSS),"CACNA2D3 rs9861155 allele A, P 2.07E−02",−4.28 PANSS
same,Beta (PANSS),"CCBE1 rs12606241 allele G, P 3.38E−02",−4.12 PANSS
same,Beta (PANSS),"CDH13 rs3935908 allele G, P 4.47E−02",−2.89 PANSS
same,Beta (PANSS),"CDH13 rs8048616 allele C, P 2.03E−02",−3.49 PANSS
same,Beta (PANSS),"CERK rs78424 allele A, P 2.86E−02",−3.60 PANSS
same,Beta (PANSS),"CHRM3 rs4659552 allele A, P 3.50E−02",−3.02 PANSS
same,Beta (PANSS),"CLSTN2 rs10513102 allele C, P 4.28E−02",−4.05 PANSS
same,Beta (PANSS),"CNTN6 rs7646412 allele A, P 2.28E−02",−4.64 PANSS
same,Beta (PANSS),"CNTNAP2 rs10240221 allele A, P 3.63E−02",−3.22 PANSS
same,Beta (PANSS),"COL22A1 rs4311658 allele G, P 2.37E−03",−5.04 PANSS
same,Beta (PANSS),"COL22A1 rs4442151 allele C, P 2.37E−03",−5.04 PANSS
same,Beta (PANSS),"CPLX2 rs2243404 allele C, P 2.25E−02",−4.30 PANSS
same,Beta (PANSS),"CSMD1 rs2616996 allele G, P 4.49E−02",−3.44 PANSS
same,Beta (PANSS),"CTNNA2 rs10201249 allele A, P 2.33E−02",−4.77 PANSS
same,Beta (PANSS),"CTNNA2 rs10520244 allele C, P 2.12E−02",−6.07 PANSS
same,Beta (PANSS),"CTNNA2 rs17018593 allele A, P 2.95E−02",−4.25 PANSS
same,Beta (PANSS),"DENND4C rs2666797 allele C, P 2.72E−02",−3.79 PANSS
same,Beta (PANSS),"DGKD rs838717 allele A, P 2.74E−02",−3.38 PANSS
same,Beta (PANSS),"DLC1 rs12677920 allele A, P 3.27E−02",−3.35 PANSS
same,Beta (PANSS),"DLG2 rs7101982 allele C, P 4.47E−02",−2.93 PANSS
same,Beta (PANSS),"DYNC1I1 rs17638044 allele C, P 2.39E−03",−8.72 PANSS
same,Beta (PANSS),"ERG rs10854385 allele A, P 3.76E−02",−4.00 PANSS
same,Beta (PANSS),"ESRRG rs9441544 allele C, P 2.40E−02",−4.04 PANSS
same,Beta (PANSS),"ETV1 rs41505 allele C, P 2.62E−03",−4.08 PANSS
same,Beta (PANSS),"EXOC2 rs1747599 allele G, P 4.44E−02",−3.71 PANSS
same,Beta (PANSS),"EXOC2 rs17135234 allele A, P 3.55E−02",−4.93 PANSS
same,Beta (PANSS),"FBXL2 rs6772365 allele C, P 4.07E−02",−3.45 PANSS
same,Beta (PANSS),"FHIT rs12636662 allele A, P 2.18E−03",−4.62 PANSS
same,Beta (PANSS),"FLJ38109 rs11167681 allele C, P 3.82E−02",−3.35 PANSS
same,Beta (PANSS),"FMN2 rs1020709 allele C, P 3.77E−02",−3.38 PANSS
same,Beta (PANSS),"FMNL2 rs1155779 allele C, P 2.20E−02",−3.41 PANSS
same,Beta (PANSS),"FOXP1 rs831440 allele C, P 3.37E−02",−3.67 PANSS
same,Beta (PANSS),"GALNTL4 rs4909979 allele C, P 2.49E−02",−5.30 PANSS
same,Beta (PANSS),"GNG2 rs1343870 allele G, P 4.37E−02",−3.12 PANSS
same,Beta (PANSS),"GPR116 rs9395218 allele C, P 3.77E−02",−4.73 PANSS
same,Beta (PANSS),"GRID2 rs1433667 allele C, P 2.84E−03",−4.87 PANSS
same,Beta (PANSS),"GRID2 rs1836115 allele A, P 3.01E−02",−3.53 PANSS
same,Beta (PANSS),"GRID2 rs13103135 allele C, P 4.20E−02",−3.66 PANSS
same,Beta (PANSS),"GRM8 rs17865066 allele A, P 2.61E−02",−10.79 PANSS
same,Beta (PANSS),"GRM8 rs17865434 allele C, P 2.61E−02",−10.79 PANSS
same,Beta (PANSS),"HAAO rs3755540 allele C, P 2.01E−02",−3.79 PANSS
same,Beta (PANSS),"INMT-FAM188B;FAM188B rs10230286 allele A, P 2.09E−02",−3.51 PANSS
same,Beta (PANSS),"INMT-FAM188B;FAM188B rs11972565 allele A, P 2.70E−02",−3.53 PANSS
same,Beta (PANSS),"ITPR2 rs11048710 allele A, P 3.74E−02",−3.75 PANSS
same,Beta (PANSS),"IYD rs2076286 allele A, P 4.24E−02",−6.69 PANSS
same,Beta (PANSS),"JAG1 rs6074164 allele A, P 3.54E−02",−4.59 PANSS
same,Beta (PANSS),"KCNB1 rs34467662 allele C, P 2.39E−02",−9.06 PANSS
same,Beta (PANSS),"KCNIP4 rs10516363 allele A, P 3.20E−02",−3.43 PANSS
same,Beta (PANSS),"KCNQ1 rs422314 allele C, P 3.83E−02",−3.18 PANSS
same,Beta (PANSS),"KCNQ3 rs17659416 allele A, P 2.67E−02",−4.39 PANSS
same,Beta (PANSS),"LDB2 rs3805320 allele A, P 3.90E−02",−3.16 PANSS
same,Beta (PANSS),"LRFN2 rs2078460 allele A, P 3.06E−02",−3.67 PANSS
same,Beta (PANSS),"LRP1B rs2380943 allele C, P 1.96E−02",−3.47 PANSS
same,Beta (PANSS),"LRP1B rs34488772 allele A, P 2.80E−02",−8.41 PANSS
same,Beta (PANSS),"MCPH1 rs2515509 allele C, P 2.44E−02",−5.16 PANSS
same,Beta (PANSS),"MSR1 rs6981231 allele C, P 2.17E−02",−7.67 PANSS
same,Beta (PANSS),"MYO10 rs26317 allele A, P 2.25E−02",−3.80 PANSS
same,Beta (PANSS),"NCAM2 rs12483671 allele A, P 4.38E−02",−3.47 PANSS
same,Beta (PANSS),"NLGN1 rs2861338 allele A, P 2.69E−02",−3.51 PANSS
same,Beta (PANSS),"NPAS3 rs927763 allele G, P 3.26E−02",−4.45 PANSS
same,Beta (PANSS),"NRG3 rs12767532 allele G, P 2.93E−02",−3.66 PANSS
same,Beta (PANSS),"OPCML rs3018407 allele A, P 2.60E−02",−3.48 PANSS
same,Beta (PANSS),"OPCML rs3019855 allele C, P 3.16E−02",−3.40 PANSS
same,Beta (PANSS),"OPCML rs3920986 allele G, P 2.33E−02",−3.72 PANSS
same,Beta (PANSS),"PARD3B rs7589114 allele C, P 4.08E−02",−3.18 PANSS
same,Beta (PANSS),"PCDH15 rs2384470 allele C, P 2.33E−03",−5.21 PANSS
same,Beta (PANSS),"PIKFYVE rs17699982 allele A, P 4.51E−02",−4.12 PANSS
same,Beta (PANSS),"PLCG2 rs4889447 allele C, P 3.48E−02",−5.77 PANSS
same,Beta (PANSS),"PLXDC2 rs989767 allele A, P 4.48E−02",−3.31 PANSS
same,Beta (PANSS),"PRKG1 rs1904018 allele C, P 2.81E−02",−3.09 PANSS
same,Beta (PANSS),"PTPRT rs876523 allele C, P 2.06E−02",−3.45 PANSS
same,Beta (PANSS),"RGS7 rs2678780 allele A, P 2.47E−03",−4.56 PANSS
same,Beta (PANSS),"RGS7 rs10802943 allele C, P 3.52E−02",−2.99 PANSS
same,Beta (PANSS),"RIMBP2 rs12305517 allele C, P 2.16E−02",−5.62 PANSS
same,Beta (PANSS),"ROBO2 rs1470571 allele C, P 3.50E−02",−3.69 PANSS
same,Beta (PANSS),"RPRD1A rs4799835 allele A, P 4.31E−02",−3.76 PANSS
same,Beta (PANSS),"SAMD4A rs8011374 allele C, P 3.60E−02",−3.17 PANSS
same,Beta (PANSS),"SDK2 rs4969114 allele A, P 2.22E−02",−3.33 PANSS
same,Beta (PANSS),"SGCZ rs12155874 allele A, P 3.89E−02",−3.08 PANSS
same,Beta (PANSS),"SHC3 rs10122011 allele C, P 2.47E−02",−3.43 PANSS
same,Beta (PANSS),"SLC35F3 rs12087906 allele G, P 3.30E−02",−9.04 PANSS
same,Beta (PANSS),"SORBS1 rs4572071 allele A, P 3.25E−02",−3.66 PANSS
same,Beta (PANSS),"SORBS1 rs4918911 allele C, P 4.32E−02",−3.34 PANSS
same,Beta (PANSS),"ST8SIA1 rs4606528 allele C, P 3.26E−02",−3.84 PANSS
same,Beta (PANSS),"STX11 rs3734228 allele C, P 3.21E−02",−9.67 PANSS
same,Beta (PANSS),"STX11 rs6912580 allele C, P 3.21E−02",−9.67 PANSS
same,Beta (PANSS),"TGIF1 rs12606927 allele A, P 4.02E−02",−3.49 PANSS
same,Beta (PANSS),"TMC1 rs10869183 allele T, P 2.41E−02",−3.43 PANSS
same,Beta (PANSS),"TMTC2 rs7974520 allele A, P 3.49E−02",−3.64 PANSS
same,Beta (PANSS),"TRIM9 rs882413 allele C, P 2.00E−02",−4.35 PANSS
same,Beta (PANSS),"TSC1 rs1050700 allele A, P 4.13E−02",−3.29 PANSS
same,Beta (PANSS),"USP10 rs2012708 allele C, P 3.86E−02",−3.05 PANSS
same,Beta (PANSS),"WWOX rs7203676 allele C, P 2.23E−02",−3.87 PANSS
